Laboratory results reported in patent US4521423A, “7,8,9,10-Tetrahydrobenzo[h]quinolin-9-amine derivatives and compositions and methods for treating depression employing them” (Ayerst, McKenna & Harrison, Ltd., priority 1983, dated 1985).

What was measured:
norepinephrine uptake = experiment: in vitro [3H]norepinephrine uptake inhibition, rat brain preparation; format: biochemical; conditions: concentration of 1×10^-6 moles
From the text: (§1) For example, the ability of the present compounds to block substantially the uptake of norepinephrine and serotonin, characteristic properties of antidepressants, can be shown in the in vitro test using rat brain preparation as described by M. H. Kannengiesser, P. Hunt and J.-P. Raynaud, Biochem. Pharmacol., 22, 73 (1973); see also E. G. Shaskan and S. H. Snyder, J. Pharmacol. Exptl. Therap., 175, 404 (1970), and J. Glowinski and L. L. Iversen, J. Neurochemistry, 13, 655 (1966).

serotonin uptake = experiment: in vitro [3H]serotonin uptake inhibition, rat brain preparation; format: biochemical; conditions: concentration of 1×10^-6 moles
From the text: as §1

Compound: CCCN(CCC)C1CCc2ccc3cccnc3c2C1 (centres unmarked) [7,8,9,10-Tetrahydro-N,N-dipropylbenzo[h]quinolin-9-amine]
- inhibition of [3H]norepinephrine uptake (norepinephrine uptake): 52%
- inhibition of [3H]serotonin uptake (serotonin uptake): 57%
